# Data published in patent US20240238237A1, “CONJUGATED LINOLEIC ACID SUPPLEMENTATION FOR DISEASE TREATMENT” (VIRGINIA TECH INTELLECTUAL PROPERTIES, INC., priority 2021, published 2024).
# “Also recorded” adds a separate entry of the source.
# Tests used:
# [1] = tested on: testes of N2KO and WT mice; experiment: Testicular histology (H&E), Example 3; type: in vivo, mouse
# Excerpt: At the end of the study, numerous body tissues were taken during necropsy, including testes. […] There appeared to be no effect in WT mice.
# At the end of the 12-week feeding study with supplemental CLA, mice were euthanized and necropsied. Testicular tissue was removed from the abdominal cavity and placed in 4% paraformaldehyde overnight. The next day, tissue was dehydrated in 70% ethanol and stored at 4 degrees C. until further processing, which included embedding, sectioning and H&E staining.
# [2] = tested on: N2KO mice; settings: 20% fat diet, refs [13-16]; cited from earlier work
# [3] = tested on: hypothalamic gene expression; experiment: Hypothalamic RNA-seq and RT-QPCR; type: in vivo, mouse
# Description: Fresh hypothalamus tissue was lysed in TRIzol® using a rotor stator homogenizer. TRIzol samples were frozen at −20° C. in microfuge tubes until purified (2 weeks to 5 months). […] Purified RNA was then DNAse-treated using TURBO DNA-free™ Kit (ThermoFisher #AM1907) according to manufacturer's instructions, diluted to 60 ng/μL in nuclease-free water, and stored at −80° C.
# RNA sequencing and library preparation was performed by Virginia Tech's Genomics Sequencing Center facility at the Fralin Life Sciences Institute. […] The library was enriched by 14 cycles of PCR, validated using Agilent TapeStation, and quantitated by qPCR. Individually indexed cDNA libraries were pooled and sequenced on NextSeq 75 SR. The Illumina NextSeq Control Software v2.1.0.32 with Real Time Analysis RTA v2.4.11.0 was used to provide the management and execution of the NextSeq 500 and to generate binary base call (BCL) files. The BCL files were converted to FASTQ files, adapters trimmed, and demul-tiplexed using bcl2fastq Conversion Software v2.20. FASTQ files were aligned to mouse genome GRCm38.p6 using the Geneious RNA assembler 2 Jan. […] Raw read counts were quantified to gene and/or transcript annotations with loss of strand-specificity. Differential expression analysis across experimental conditions was performed using the DESeq2 plugin in Geneious Prime. Default settings for filtering low-expression mapped genetic features were used for the DESeq2 plugin. False discovery rate (FDR) was calculated using the Benjamini-Hochberg procedure with a threshold for significance of FDR <0.10. Additionally, raw read counts were used to quantify differential expression through edgeR and voom using the DEApp online webserver. Low-expression mapped genetic features were removed with log 2CPM <1 in 2 or more samples. The results from the three differential expression methodologies, DESeq2, edgeR, and voom, were compared using R and spreadsheet software such as Microsoft Excel. Differentially expressed genes were analyzed for gene-ontology enrichment with MouseMine.
# Reactions of 10 μL were performed using 150 nM final primer concentration. […] A 90 ng measure of RNA was used per 10 μL reaction. Two to three technical replicates were performed. Control reactions for each sample (minus reverse-transcriptase and minus template controls) were used for quality control. […] Quality-control measures including melt-curve analysis, technical replicate analysis, etc., were analyzed by thermocycler software and by operator; any major errors were excluded from analysis when deemed appropriate by the quality-control software, and/or new samples and plates were run. Candidate reference genes for ddCT analysis were analyzed and mouse beta-actin was chosen as the reference gene control for all experiments.
# The numbers of samples in statistical tests are described in respective figures. The 2ddCT method of relative quantification was used. Statistical significance tests were performed on respective ddCT values, from which Relative Quantification values were derived. A two-way ANOVA with Bonferroni correction was used for relative expression of RNA normalized to WT or control conditions.
# [4] = tested on: WT, PWS (Snord116m+/p−) and PWS-KO (Snord116m−/p−) mice; experiment: Indirect calorimetry and home-cage activity (TSE system); type: in vivo, mouse; settings: end of study, TSE metabolic chamber
# Description: Indirect calorimetry and locomotor activity measurements were performed using a Labmaster Mouse calorimetry and Locomotor system (TSE Systems, Bad Homburg, Germany) in the Metabolism Core Virginia Tech. VO2 consumption and VCO2 production in individual mice were measured using metabolic chambers. Air going into the TSE system was at 20.9% oxygen, 0.05% CO2, and the airflow rate was 0.4 L/min (Airgas, Christiansburg, VA, USA). Data were collected every 15 min. Body composition was measured, as described above, prior to assessment of the animals using the TSE system. A photobeam-based ac-tivity monitoring system detected and recorded ambulatory movements. The results were used to calculate the respiratory exchange ratio (RER) and total energy expenditure/gram lean mass. Energy expenditure (KJ/h) was calculated using the formula VO2×(3.815+(1.232×RER))×4.1868 and normalized to the lean mass determined by NMR. All parameters were measured continuously and simultaneously for 48 h after approximately 20 h of adaptation for single-housed mice. The average values for the last 24-48 h were used for analysis. To calculate hourly activity, the average of two-hour bins of activity from the last 24 h period was plotted. […]
# [5] = tested on: WT, PWS (Snord116m+/p−) and PWS-KO (Snord116m−/p−) mice; experiment: Rotarod analysis, Example 1; type: in vivo, mouse; settings: end of study
# Description: For rotarod analysis, animals were tested using a Columbus Instruments (Columbus, OH, USA) Economex Rota-Rod apparatus. All mice in the study were given four trials each day during the day (between 11 a.m. and 1 p.m.) for four consecutive days from 0 rpm to a maximum speed of 20 rpm, with an acceleration slope of 2.65%. Animals were tested for a maximum of 5 min of running per test, or until the animals fell off the device. The Economex Rota-Rod apparatus is equipped with a pressure-sensitive landing area so that the time spent on the rotating rod is automatically recorded when the animal falls.
# The procedure has been previously described. Animals were given between 10 and 15 min of rest in between trials. Note that there are four days of testing, with each day consisting of four trials. The initial trials on Day 1 use a lane where Applicant placed non-slip bathroom tape to provide a stable environment for the animal to learn the procedure. The non-taped lanes were used for Days 2-4. Days 2-3 serve as acclimation days. Day 4 data were used for analysis.
substance,measurement,setting,value
conjugated linoleic acid [CLA],"Testicular morphology, WT mice",[1]; 12 weeks CLA diet,no effect; also recorded: normal testicular morphology
same,"Testicular morphology, N2KO mice",[1]; 12 weeks CLA diet vs control diet,improved testicular morphology
same,Sperm in N2KO mice fed the CLA diet,"[1]; N2KO, histology",apparent presence of sperm in the epididymis
same,Testis size,[1]; effect of diet,not influenced
same,Outcomes of CLA treatment of N2KO mice,[2],"weight loss, decreased body fat, increased metabolism, muscle mitochondrial biogenesis, and increased exercise performance"
same,"Chmp1b mRNA, verification QPCR","[3]; QPCR, p=0.01",increase was maintained
same,"Retreg2 mRNA, validation QPCR","[3]; QPCR, p=0.22",not significant
same,Genes up-regulated by CLA diet,[3]; RNA-seq,135 genes
same,Retreg2 mRNA reduction,"[3]; RNA-seq, CLA diet treatment on PWS mice",0.89 fold
same,Differentially expressed genes between control diet and CLA diets,"[3]; RNA-seq, WT and PWS hypothalamus",431 genes
same,Chmp1b mRNA increase with CLA diet,"[3]; RNA-seq, both genotypes",1.27 fold
same,Mael expression in PWS mice,"[3]; RNA-seq, not confirmed by RT-QPCR",rescued
same,"Gene Ontology enrichment, WT response to CLA diet",[3]; WT only,"starvation, nutrient levels, and cellular stress were significantly enriched"
same,"Gene Ontology enrichment, CLA vs control",[3]; all genotypes,"significantly enriched processes related to ribosomal RNA processing, cellular metabolic processes, and aging, lethality, or survival processes"
same,Home-cage activity,[4],not significant
same,Rotarod ability,[5],not affected
